Test results taken from US9902713B2, “Neuroprotective compounds and use thereof” (BOARD OF REGENTS OF THE UNIVERSITY OF TEXAS SYSTEM, priority 2013, dated 2018).

Assays:
in vivo = settings: mouse; for Kp: brain and plasma
newborn neurons = assay: Survival of BrdU-prelabeled newborn neurons (FIG. 4); assay type: in vivo, mice; settings: BrdU bolus, then twice-daily IP 7 days
Protocol: (§1) Adult mice were administered a bolus of BrdU (150 mg/kg) to label newborn neurons, and 24 hours later, twice-daily IP treatment was begun with vehicle or compound for 7 days. At the end of the 7 days, the number of surviving BrdU-labeled neurons was quantified. Importantly, under the conditions of this experiment, newborn neurons were labeled prior to exposure to drug, so any increase in number of neurons can be attributed to neuroprotective activity rather than proliferative effects. […] Data shown are mean+/−SEM. P values are shown for comparison to VEH treated group, and were obtained by one-way ANOVA with Dunnet's post-hoc test, using GraphPad Prism 5.0. Asterisks indicate p<0.01 (*) or p<0.0001 (***).
as §1, with “Specifically, in FIG. 4, adult” for “Adult”, “Asterisks indicate p<0.01 (*) or p<0.0001 (***).” left out

[1] = Pharmacokinetic analysis, plasma and brain levels
[2] = tested on: hippocampal CA1 neurons, myelin and mitochondria; assay: Toluidine blue staining and TEM of hippocampus after blast-injury; assay type: in vivo, mice
Protocol: To further examine hippocampal structural pathology, we turned to ultrathin ([…]) section histology using toluidine blue staining, as well as transmission electron microscopy (TEM) (FIG. 31). […] In blast-injured animals, however, we observed accumulation of chromatolytic and pyknotic neurons in the CA1 stratum pyramidale, accompanied by decreased dendritic extensions in the stratum radiatum, indicating general ongoing pathologic processes associated with neurodegeneration and consistent with our electrophysiologic data in FIG. 17.
The stratum radiatum is where CA3 Schaeffer collateral axons synapse with dendrites of CA1 pyramidal cells. This was the circuit we investigated electrophysiologically (FIG. 17), and we next turned to TEM to further characterize blast-injury induced axonal degeneration. […] These axons contained intact and healthy-appearing mitochondria.
Toluidine blue staining and transmission electron microscopy (TEM). Mice were transcardially perfused with Karnovsky's fixative solution (2% formaldehyde, 2.5% glutaraldehyde, 0.2M sodium cacodylate buffer, 1 mM CaCl2, 2 mM MgCl2, and 42.8 mM NaCl, pH 7.4) two weeks after either sham- or blast-Injury and with or without specified compound treatment. Harvested brains were incubated in Karnovsky's overnight at 4° C. Whole brains were cut in the horizontal plane (100 μm) using a vibratome (Leica 1500). Sections that contained the hippocampus were selected, washed with 0.1M sodium cacodylate buffer and then post fixed with 1% osmium fixative for 1 hr. After washing in 0.1M sodium cacodylate buffer, sections were dehydrated in a series of ethanol (50%, 75%, 95% and 100% ethanol) followed by embedding in EPON resin overnight at 65° C. For toluidine blue staining, semithin sections (1 μm) were cut with an ultramicrotome (Leica UC6) and stained with toluidine blue. Pictures were taken using an upright microscope (Zeiss Axio Imager.M2) with a color camera (AxioCam ICc5). For TEM, ultrathin sections (60 nm) adjacent to the semithin sections were cut with an ultramicrotome, loaded onto a Formvar 200-mesh Ni grid, and counterstained with uranyl acetate and lead citrate. Specimens were examined using a JEOL JEM 1230 electron microscope with a Gatan UltraScan 1000 2 k×2 k CCD camera. See also FIG. 31.

[3] = biological target: (Homo sapiens, UniProt P10635); assay: Cytochrome P450 inhibition; assay type: in vitro ADME; settings: 3D6
(Homo sapiens, UniProt P10635), sequence (P10635 whole entry): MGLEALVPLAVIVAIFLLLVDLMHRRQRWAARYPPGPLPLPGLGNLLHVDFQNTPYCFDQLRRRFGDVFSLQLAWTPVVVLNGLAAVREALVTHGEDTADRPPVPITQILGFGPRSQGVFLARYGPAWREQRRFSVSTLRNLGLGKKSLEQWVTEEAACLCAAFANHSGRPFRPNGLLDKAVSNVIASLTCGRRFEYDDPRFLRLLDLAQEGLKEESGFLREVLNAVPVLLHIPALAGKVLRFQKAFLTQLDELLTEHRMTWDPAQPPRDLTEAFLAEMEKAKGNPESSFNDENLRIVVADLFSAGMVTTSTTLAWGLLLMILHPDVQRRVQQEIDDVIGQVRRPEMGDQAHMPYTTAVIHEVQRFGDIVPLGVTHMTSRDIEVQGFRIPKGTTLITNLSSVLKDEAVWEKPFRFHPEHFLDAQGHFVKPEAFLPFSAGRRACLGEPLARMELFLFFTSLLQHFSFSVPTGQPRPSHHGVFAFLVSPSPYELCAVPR

HCC44 = assay: Toxicity towards human cancer cell line; assay type: cell-based
[4] = biological target: peripheral benzodiazepine receptor (translocator protein, TSPO) (Rattus norvegicus, UniProt P16257); assay: Ligand displacement (Psychoactive Drug Screening Program); assay type: binding
[5] = blast-injured, oral 0.3 mg/kg/day

SMILES: COc1cccc(NCC(F)Cn2c3ccc(Br)cc3c3cc(Br)ccc32)n1 (racemic) [P7C3-S243, N-(3-(3,6-dibromo-9H-carbazol-9-yl)-2-fluoropropyl)-6-methoxypyridin-2-amine]
- Kp (in vivo; ip, 10 mg/kg): 0.45
- Kp (in vivo; ip, 20 mg/kg): 0.28
- Kp (in vivo; iv, 10 mg/kg): 1.1
- Kp (in vivo; po, 20 mg/kg): 0.81
- bioavailability (in vivo; brain, po, 20 mg/kg): 58%
- bioavailability (in vivo; plasma, ip, 20 mg/kg): 90%
- bioavailability (in vivo; plasma, po, 20 mg/kg): 38%
- protection down to (dose) (newborn neurons): 1 mg/kg/day
- % F (brain) ([1]; IP 10 mg/kg): 28%
- % F (plasma) ([1]; IP 10 mg/kg): 66%
- AUC(brain) ([1]; IP 10 mg/kg): 189 ± 35 µg·min/g
- T1/2 ([1]; IP 10 mg/kg): >24 h
- % F (brain) ([1]; IP 20 mg/kg): 48%
- AUC(brain) ([1]; IP 20 mg/kg): 319 ± 68 µg·min/g
- T1/2 ([1]; IP 20 mg/kg): 15 h
- AUC(brain) ([1]; IV 10 mg/kg): 671 ± 14 µg·min/g
- T1/2 ([1]; IV 10 mg/kg): 7.4 h
- AUC(brain) ([1]; PO 20 mg/kg): 388 ± 29 µg·min/g
- T1/2 ([1]; PO 20 mg/kg): 9.6 h
- metabolic stability in vivo ([1]; all routes of administration): metabolically stable
- brain levels ([1]; following IP dosing): dose-proportional increase

SMILES: COc1cccc(NCC(F)Cn2c3ccc(Br)cc3c3cc(Br)ccc32)n1 (single isomer, unassigned; (-)) [(−)-P7C3-S243, (−)-N-(3-(3,6-dibromo-9H-carbazol-9-yl)-2-fluoropropyl)-6-methoxypyridin-2-amine]
- CA1 histology (toluidine blue) [2, 5]: these same pathologic features were present
- axons and neuronal mitochondria (TEM) [2, 5]: degenerating axons with characteristic unraveling of the myelin sheath
- axons and neuronal mitochondria (TEM) ([2]; blast-injured, oral 3 mg/kg/d): partial resolution of pathological signs
- CA1 histology (toluidine blue) ([2]; blast-injured, oral 3 mg/kg/day): partially preserve dendritic extension
- CA1 histology (toluidine blue) ([2]; blast-injured, oral 30 mg/kg/d): fully preserved all structural aspects
- axons and neuronal mitochondria (TEM) ([2]; blast-injured, oral 30 mg/kg/d): full protection
- CA1 histology (toluidine blue) ([2]; sham-injured, oral 30 mg/kg/d): did not change
- axons and neuronal mitochondria (TEM) ([2]; sham-injury, oral 30 mg/kg/d): normally myelinated axons
- sensitivity of cytochrome P450 [3]: insensitive
- IC50 (HCC44): > 10000 nM
- IC50 [4]: 350 nM
